One experiment relates to HCT-116. Put plainly: MTT cytotoxicity on colon cancer cell line HCT-116. The format is cell-based. The following applies: Homo sapiens, mean ± SD. The method, then: (§1) Diverse human cancer cell lines: liver cancer cells (HepG2), colon cancer cell line (HCT-116), and breast cancer cell line (MCF-7) were brought from VACSERA Tissue Culture Unit (Giza, Egypt). RPMI-1640 media enhanced with 10% fetal bovine serum and […] gentamycin were employed to culture the cells. The cells were incubated at 37 °C with 5% CO2. To determine the cytotoxic activity, cells were treated with various doses (0–100 µg/ mL) of B. velezensis DM extract or Doxorubicin, and their viability compared to untreated controls was assessed. Compound (1) cytotoxic potential was evaluated against HCT-116 as well as normal epithelial cells (THLE2) to calculate the selectivity index (SI) as formerly depicted.
(§2) IC50 was calculated by the Graph Pad Prism (version 8, San Diego, CA, USA) (n = 3 replicates). Data are presented as mean ± SD.

Another experiment has as its system THLE-2 normal cell line. The experiment can be described thus: Cytotoxicity on normal epithelial cells THLE-2 (selectivity index). The format is cell-based. The following applies: for IC50: Homo sapiens, THLE-2, normal cell line, mean ± SD; for SI (selectivity index): THLE-2 versus HCT-116. As for the experimental part: as §1, §2
The nature of another experiment: Antioxidant ABTS assay. The following applies: mean ± SD. As for the experimental part: Antioxidant ABTS assay: the capacity of B. velezensis DM extract to scavenge ABTS radical cations was assessed compared to Quercetin at a range of concentrations, including 300, 150, 75, 25, and 10 µg/ mL [38].
as §2

A further experiment can be described thus: Antioxidant DPPH assay. The conditions noted are these: mean ± SD. The method, then: Antioxidant DPPH assay: To inspect the antioxidant potential of B. velezensis DM extract, a methodology reported by Nahar et al. was used compared to Trolox. IC50 was calculated by the Graph Pad Prism (version 8, San Diego, CA, USA) (n = 3 replicates). Data are presented as mean ± SD.
On the technique in general: Loss of DPPH colour is used to gauge radical scavenging.

Where [1] appears, read: compound (1) experiment, read-out: IC50 HCT-116 (Table 4).

SMILES strings stand for the structures. ≈ marks a conversion by molar mass, not a printed value. Where “and” joins values, the source holds several entries; their conditions need not be identical. Equal values may be shown once. Read-outs that look alike come from different tables or passages of the source.

In general, IC50 refers to the concentration that inhibits the measured activity by half. With `CNC=C(CC(O)C(O)CO)NC` (stereo not drawn) [Compound (1), 5,6-di(methylamino)hex-5-ene-1,2,3-triol], the figures for the IC50 with HCT-116 (setting [1]) and with THLE-2 normal cell line were 27 ± 1.85 µg/mL (≈ 142 µM) and 68.7 ± 3.34 µg/mL (≈ 361 µM), respectively. Also, the “SI (selectivity index)” value in the experiment with THLE-2 normal cell line is 2.5 and 2.54.
Regarding `COc1cccc2c1C(=O)c1c(O)c3c(c(O)c1C2=O)C[C@@](O)(C(=O)CO)C[C@@H]3O[C@H]1C[C@H](N)[C@H](O)[C@H](C)O1` [Doxorubicin (DOX), Doxorubicin], the IC50 in the experiment with HCT-116 (MTT, 0–100 µg/mL, n = 3, read-out: IC50 HCT-116 (Table 3)) was determined as 4.82 ± 0.18 µg/mL (≈ 8.87 µM); in the experiment on HCT-116 (setting [1]), 11.7 ± 0.4 µg/mL (≈ 21.5 µM); with THLE-2 normal cell line, 17.4 ± 1.25 µg/mL (≈ 32.1 µM). Further, the “SI (selectivity index)” value in the experiment on THLE-2 normal cell line was 1.49.
As to `O=c1c(O)c(-c2ccc(O)c(O)c2)oc2cc(O)cc(O)c12` [Quercetin], in “Antioxidant ABTS assay”, the “ABTS (IC50)” value worked out at 42.13 ± 1.92 µg/mL.
For `Cc1c(C)c2c(c(C)c1O)CCC(C)(C(=O)O)O2` (stereo not drawn) [Trolox], the “DPPH (IC50)” value in the experiment “Antioxidant DPPH assay” is on record as 113.31 ± 4.2 µg/mL.

Source of the values: publication PMC12032720, “Pharmacological assessment of the extract and a novel compound of Bacillus velezensis DM derived from the rhizosphere of Datura metel L. with microbial molecular screening” (BMC Complementary Medicine and Therapies, 2025).
